Experimental findings from BindingDB's records for doi:10.1021/acs.jmedchem.8b01394 (Roche Pharma Research and Early Development, 2018) are described below.

What is called EC50 is the concentration at which the effect is half-maximal. For orientation: IC50 means the concentration that gives 50% inhibition.

One test is described as follows: Inhibition of RSV Long fusion protein assessed as decrease in virus induced syncytium formation in infected human HeLa/M cells.
For `Cc1ccc(O)c(Cn2c(NC3CCN(CCN)CC3)nc3c(C)cccc32)n1` [JNJ 2408068], the EC50 worked out at 0.16 nM.

The next test can be described thus: Inhibition of RSV Long fusion protein assessed as protection against virus induced cytopathic effect in infected human Hep2 cells after 5 days by CCK8 assay. For orientation: Protection from cytopathic effect is a common read-out in antiviral testing.
Take `Cc1ccc2nc(N3CCS(=O)(=O)c4ccccc4C3)cc(NCCCCN)c2c1`: the EC50 is 7 nM.
On the same count and under the same terms, then `Cc1ccc2nc(N3CCS(=O)(=O)c4ccccc4C3)cc(NCCCCCN)c2c1`, with 27 nM; and `CS(=O)(=O)c1ccc2nc(N3CCCc4ccccc4C3)cc(NCCN)c2c1`, with 5600 nM.
On the same count and under the same terms, under `NCCNc1cc(N2CCS(=O)(=O)c3ccccc3C2)nc2ccccc12` stands 11 nM; under `NCCNc1cc(N2CCOc3ccccc3C2)nc2ccccc12`, 230 nM.
For the molecule `Cc1ccc2nc(N3CCC(F)(F)c4ccccc4C3)cc(NCCN)c2c1`, the half-maximal effective concentration (EC50) was determined as 62 nM.
On the same count and under the same terms, then `NCC(O)CNc1cc(N2CCc3ccccc3C2)nc2ccccc12` (stereo not drawn), with 220 nM.
Consider `NCC(O)CNc1cc(N2Cc3ccccc3C2)nc2ccccc12` (stereo not drawn), for which the EC50 is greater than 100000 nM.
Regarding `NCC(O)CNc1cc(N2CCCc3ccccc3C2)nc2ccccc12` (stereo not drawn), the half-maximal effective concentration (EC50) is 220 nM.
On the same count and under the same terms, under `OCC(O)CNc1cc(N2CCc3ccccc3C2)nc2ccccc12` (stereo not drawn) stands 22000 nM.
The same measure, in the same setting: under `CC(O)CNc1cc(N2CCc3ccccc3C2)nc2ccccc12` (stereo not drawn) stands greater than 100000 nM; under `NCCNc1cc(N2CCc3ccccc3C2)nc2ccccc12`, 2300 nM; under `NCCCCNc1cc(N2CCc3ccccc3C2)nc2ccccc12`, greater than 100000 nM.
For the molecule `NC(=O)NCCNc1cc(N2CCc3ccccc3C2)nc2ccccc12`, the EC50 came out at 15000 nM.
The same measure, in the same setting: then `NCCNc1cc(N2CCCc3ccccc3C2)nc2ccccc12`, with 200 nM; and `NCCNc1cc(N2CCCc3ccccc3C2)nc2cccc(Cl)c12`, with 6600 nM.
`NCCNc1cc(N2CCCc3ccccc3C2)nc2cc(Cl)ccc12`: the half-maximal effective concentration (EC50) is greater than 3200 nM.
For `NCCNc1cc(N2CCCc3ccccc3C2)nc2c(Cl)cccc12`, the EC50 is 1100 nM.
For `Cc1ccc2nc(N3CCCc4ccccc4C3)cc(NCCN)c2c1`, the EC50 is 73 nM.
On to `NCCNc1cc(N2CCCc3ccccc3C2)nc2ccc(F)cc12`, for which the half-maximal effective concentration (EC50) was 1500 nM.
Same read-out and setting: under `NCCNc1cc(N2CCCc3ccccc3C2)nc2ccc(C(F)(F)F)cc12` stands 1100 nM.
Same read-out and setting: under `Cc1ccc2nc(N3CC(=O)Nc4ccccc4C3)cc(NCCN)c2c1` stands 310 nM; under `Cc1ccc2nc(N3CCCc4cc(F)ccc4C3)cc(NCCN)c2c1`, 460 nM.
With `Cc1ccc2nc(N3CCCc4ccc(F)cc4C3)cc(NCCN)c2c1`, the half-maximal effective concentration (EC50) was found to be 100 nM.
Same read-out and setting: then `Cc1ccc2nc(N3CCS(=O)(=O)c4ccccc4C3)cc(NCCCN)c2c1`, with 1 nM; and `NCCCNc1cc(N2CCc3ccccc3C2)nc2ccccc12`, with 7800 nM.
On the same count and under the same terms, under `N=C(N)NCCNc1cc(N2CCc3ccccc3C2)nc2ccccc12` stands 2300 nM; under `NCCNc1cc(N2CCCc3ccccc3C2)nc2ccc(Cl)cc12`, 120 nM; under `COc1ccc2nc(N3CCCc4ccccc4C3)cc(NCCN)c2c1`, 320 nM.
As to `Cc1ccc2nc(N3CCNc4ccccc4C3)cc(NCCN)c2c1`, the half-maximal effective concentration (EC50) was found to be 230 nM.
Regarding `Cc1ccc2nc(N3CCS(=O)(=O)c4ccccc4C3)cc(NCCN)c2c1`, the half-maximal effective concentration (EC50) came to 4 nM.

A further test in a line: Inhibition of RSV Long fusion protein L138F mutant assessed as protection against virus induced cytopathic effect in infected human Hep2 cells after 5 days by CCK8 assay.
Take `NCCNc1cc(N2CCCc3ccccc3C2)nc2ccccc12`: the IC50 was 2300 nM.
